According to patent US7531548B2, “HIV inhibiting 5-carbo- or heterocyclic substituted pyrimidines” (priority 2004, dated 2009):

| melting point | Structure (SMILES) |
| --- | --- |
| > 250 °C | CCc1cscn1 |
| 140 °C | Cc1cc(/C=C/C#N)cc(C)c1Nc1nc(Nc2ccc(C#N)cc2)ncc1NCc1cccnc1 |
| 236 °C | Cc1cc(/C=C/C#N)cc(C)c1Nc1nc(Nc2ccc(C#N)cc2)ncc1CNCc1cccnc1 |
